These are literature values, as cited in US12582661B2, “Synthesis and application of class of respiratory syncytial virus inhibitors” (SHANGHAI ARK BIOPHARMACEUTICAL CO., LTD., priority 2020, dated 2026).

The series deals with RSV. The conditions noted are these: oral; cited from earlier work.

With `Cc1cn2nc([C@@H]3CCCCN3C(=O)c3cc(Cl)ccc3NS(C)(=O)=O)cc2nc1N1CC[C@H](N)C1` [GS-5806], the “viral load, mucus quantity and symptom scores” value was “decrease viral load, mucus quantity and symptom scores”.
